One assay is filed under the species Homo sapiens. Kind of assay: Inhibition of recombinant human RAD51/p53 (unknown origin) interaction at 200 uM measured by ELISA assay.
The target in assay [1] is T1, DNA repair protein RAD51 homolog 1 (Homo sapiens) (UniProt Q06609).
T1 sequence (whole entry): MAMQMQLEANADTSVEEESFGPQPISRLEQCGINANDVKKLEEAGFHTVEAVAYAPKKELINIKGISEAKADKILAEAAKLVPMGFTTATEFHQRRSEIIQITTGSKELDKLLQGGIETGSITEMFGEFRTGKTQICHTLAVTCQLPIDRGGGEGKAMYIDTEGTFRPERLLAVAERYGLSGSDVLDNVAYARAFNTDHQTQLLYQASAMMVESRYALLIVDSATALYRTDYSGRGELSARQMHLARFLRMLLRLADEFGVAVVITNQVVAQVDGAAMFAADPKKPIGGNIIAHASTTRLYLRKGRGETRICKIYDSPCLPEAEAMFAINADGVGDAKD
Kind of assay: Inhibition of RAD51 in human U2OS cells at 20 to 80 uM measured by direct repeats green fluorescent protein (DR-GFP) reporter assay. It is filed as cell-based. Conditions: dose 20-80 µM. (A reporter such as luciferase makes a cellular process visible.)

Calls of active or inactive are those of the source. The calls are words filed in the database; no cut-off is given here.

Turning to `Nc1ncnc2c1ncn2[C@@H]1O[C@H](COP(=O)(O)OP(=O)(O)NP(=O)(O)O)[C@@H](O)[C@H]1O`, the inhibition result in the assay filed under Homo sapiens is “Active”.

For the molecule `C[C@@H]1Cc2ccccc2N1C(=O)COc1ccc(N(C)S(=O)(=O)c2ccccc2)cc1`, the inhibition result (in assay [1]; in the assay listed under Homo sapiens) was “Active” each time.

For `Cc1ccc(-n2nnnc2SCC(=O)Nc2oc(C)c3c(C)n[nH]c(=O)c23)c(C)c1`, the inhibition result (in assay [1]; in the assay filed under Homo sapiens) was “Active” throughout.

For `Nc1ncnc2c1ncn2[C@@H]1O[C@H](COP(=O)(O)OP(=O)(O)OP(=O)(O)O)[C@@H](O)[C@H]1O`, the inhibition entry in the assay filed under Homo sapiens was “Active”.

On to `Cc1cc(C)c(CNC(=O)c2cccc(S(=O)(=O)N3C[C@H](C)C[C@@H](C)C3)c2)c(=O)[nH]1`, for which the inhibition entry in the assay listed under Homo sapiens is “Active”.

Turning to `Cc1c(F)cc(C(N)=O)cc1NC(=O)c1cccc(S(=O)(=O)Nc2ccccc2F)c1`, the inhibition entry in the assay filed under Homo sapiens was “Active”.
